The text below walks through data of patent publication US6916933B2, “4-pyridinyl-n-acyl-l-phenylalanines” (Hoffman-La Roche Inc., priority 1999, dated 2005).

What is called melting point is the temperature, or range, at which the solid turns liquid. As to `Cc1cccc(Cl)c1C(=O)N[C@@H](Cc1ccc(-c2cccn(C)c2=O)cc1)C(=O)O` [Example 30, N-[(2-chloro-6-methylphenyl)carbonyl]-4-(1-methyl-2-oxo-3-pyridinyl)-L-phenylalanine], the melting point fell in the range of 204 to 210 °C.

In turn, `CCc1cccc(C)c1C(=O)N[C@@H](Cc1ccc(-c2c(C(F)(F)F)cc(C)n(C)c2=O)cc1)C(=O)O` [Example 34, N-[(2-ethyl-6-methylphenyl)carbonyl]-4-[1,6-dimethyl-4-(trifluoromethyl)-2-oxo-3-pyridinyl]-L-phenylalanine] had a melting point of 219 to 221 °C.

As for `Cc1cccc(Cl)c1C(=O)N[C@@H](Cc1ccc(-c2c(C(F)(F)F)cc(C)n(C)c2=O)cc1)C(=O)O` [Example 36, N-[(2-chloro-6-methylphenyl)carbonyl]-4-[1,6-dimethyl-4-(trifluoromethyl)-2-oxo-3-pyridinyl]-L-phenylalanine], the melting point was 220 to 223 °C.

On to `COCCC1(C(=O)N[C@@H](Cc2ccc(-c3c(C(F)(F)F)cc(C)n(C)c3=O)cc2)C(=O)O)CCCC1` [Example 37, N-[[1-(2-methoxyethyl)cyclopentyl]carbonyl]-4-[1,6-dimethyl-4-(trifluoromethyl)-2-oxo-3-pyridinyl]-L-phenylalanine], for which the melting point lay in the range of 181 to 183 °C.
